Key:
HBc CTD = assay: Mobility of unassembled HBc on agarose gel (CTD phosphorylation state) and HBc protein levels in RRL; format: biochemical, Hepatitis B virus; conditions: for mobility upshift on the agarose gel of WT HBc: kinase inhibitors added at beginning of translation, ERKI 310 μM, Bisindo 40 μM; for mobility upshift on the agarose gel of WT HBc / C149 mobility on the agarose gel: Rosc 250 μM; for C149 mobility on the agarose gel: kinase inhibitors
Experimental: (§1) The TNT Coupled Rabbit Reticulocyte Lysate (RRL) in vitro translation system (Promega) was used to express the HBc proteins as recommended by the manufacturer's protocol. In vitro translated proteins were labeled by ^35S methionine. The translation reaction mix contained ca. 125 mM KCI and 2.5 mM Mg^++ (Promega).
(§2) Unless specifically indicated otherwise, the general assembly reactions included 1 to 3 microL of translation products per 10 microL final reaction volume in 1× buffer 3 (100 mM NaCl, 50 mM Tris-HCl, 10 mM MgCl2, 1 mM DTT, pH 7.9; New England Biolabs) supplemented with 1×EDTA-free protease inhibitor cocktail (Roche) and 0.8 U/μl RNasin Plus RNase Inhibitor (Promega). The reactions were incubated for 16 hrs at 37° C. unless indicated otherwise. Where indicated, additional enzymatic manipulations were performed using the same reaction buffer as above. (1) Exogenous phosphatase treatment. One unit of calf intestinal alkaline phosphatase (CIAP; New England Biolabs) per microliter of the final reaction volume was added at the end of translation and incubated for 16 hours at 37° C. (2) Kinase inhibitor treatment. […] The final concentration of DMSO in all reactions was 1% (i.e., kinase inhibitor stocks were always diluted 100-fold into the translation or assembly reactions). (3) Phosphatase inhibitor treatment. A cocktail of non-specific phosphatase inhibitors (10 mM NaF, 50 mM β-glycerophosphate, 10 mM sodium pyrophosphate, and 2 mM sodium orthovanadate; all final concentrations) were added at the end of the translation and incubated for 16 hours at 37° C. Alternatively, okadaic acid (Sigma) was added at the end of the translation at the indicated concentrations and incubated for 16 hours at 37° C. (4) RNase A digestion. RNase A (100 μg/ml final concentration) was added at the end of the translation and incubated for 16 hour at 37° C., or added at the end of the 16 hr assembly reaction and incubated for another one hr.
(§3) ^35S-labeled translation reactions were resolved by 1% agarose gel electrophoresis (100 V for ˜3 hours), using 6×DNA Loading Buffer Blue (New England Biolabs). The gels were then soaked in 10×SSC (1.5 M NaCl, 150 mM sodium citrate, pH 7.0) for approximately 30 minutes and transferred overnight to nitrocellulose membrane by capillary transfer. The next day the membranes were UV cross-linked and dried in a vacuum oven for 2 hours. The translation products were analyzed by autoradiography and Western blotting with the rabbit polyclonal anti-HBcAg (Dako) or mouse monoclonal anti-woodchuck hepatitis virus core protein (Ning X, et al. (2011) PLoS pathogens 7: e1002255).
^35S-labeled translation reactions were resolved by SDS-PAGE on 15% or 12.5% polyacrylamide gels. The resolved proteins were transferred to PVDF membrane and detected by autoradiography or Western blotting as above.

[1] = test system: HBc (HBV capsid assembly); assay: In vitro capsid assembly in RRL, agarose gel electrophoresis; format: biochemical, Hepatitis B virus
Experimental: as §1, §2, §3

PP2A = conditions: cellular serine/threonine phosphatase PP2A; Cohen P, et al. (1990); cited from earlier work
PP1 = conditions: cellular serine/threonine phosphatase PP1; Cohen P, et al. (1990); cited from earlier work
[2] = kinase inhibitors, Rosc 250 μM, CDK2I 250 μM
[3] = phosphatase inhibitor added during assembly incubation, OA 50 nM
[4] = RNase pretreatment before assembly
[5] = RNase treatment before assembly
[6] = CIAP treatment following translation

For `COc1ccc(CNc2nc(N(CCO)CCO)nc3c2ncn3C(C)C)cc1` [CDK2 inhibitor, CDK2 inhibitor III], the “levels of the WT and mutant HBc proteins” value (HBc CTD; SDS-PAGE, CDK2I 250 μM) was “increase”, the “mobility upshift on the agarose gel of WT HBc” value (shortened to “mobility upshift … of WT HBc”) (HBc CTD; CDK2I 250 μM) was “induced a mobility upshift” and the “C149 mobility on the agarose gel” value (HBc CTD; CDK2I 250 μM) was “no effect”. The 7E assembly [1, 2] was “little effect”.

With `Nc1[nH]nc2nnc(-c3c(-c4ccccc4)nn4ccccc34)cc12` [ERK inhibitor, Erk inhibitor II] the “mobility upshift … of WT HBc” value (HBc CTD; CDK2I 250 μM) was “no effect”.

For `C=C1[C@@H](O)[C@@H]2O[C@]3(CC[C@H](/C=C/[C@@H](C)[C@@H]4CC(C)=C[C@@]5(O[C@H](C[C@@](C)(O)C(=O)O)CC[C@H]5O)O4)O3)CC[C@H]2O[C@@H]1[C@@H](O)C[C@H](C)[C@H]1O[C@@]2(CCCCO2)CC[C@H]1C` [OA, okadaic acid], the IC50 (PP2A) is listed as roughly 0.1 nM, the “mobility upshift of the WT HBc on the agarose gel” value (HBc CTD; phosphatase inhibitor added during overnight 37° C. incubation following translation, OA 50 nM) is listed as “completely blocked” and the “OA concentration that could significantly affect the dephosphorylation-induced mobility upshift of the WT HBc” value (HBc CTD; titration of OA, overnight incubation at 37° C.) is listed as 4 nM. The IC50 (PP1) was 15 to 20 nM, the “capsid assembly by 3A” value [1, 3] was “not inhibited” and the “capsid assembly by 3E” value [1, 3] was “prevented assembly”.

In the case of `CN(C)CCCn1cc(C2=C(c3c[nH]c4ccccc34)C(=O)NC2=O)c2ccccc21` [PKC inhibitor, Bisindolymaleimide I], the “mobility upshift … of WT HBc” value (HBc CTD; CDK2I 250 μM) is reported as “no effect”.

For `CC[C@H](CO)Nc1nc(NCc2ccccc2)c2ncn(C(C)C)c2n1` [roscovitine, Roscovitine], the “C149 mobility on the agarose gel” value (HBc CTD; CDK2I 250 μM) was “no effect” and the 7E assembly [1, 2] was “little effect”.

B1: RNase: RNase A, 100 μg/ml final concentration (protein, UniProt P61823 27-150, looked up)
Ribonuclease pancreatic: KETAAAKFERQHMDSSTSAASSSNYCNQMMKSRNLTKDRCKPVNTFVHESLADVQAVCSQKNVACKNGQTNCYQSYSTMSITDCRETGSSKYPNCAYKTTQANKHIIVACEGNPYVPVHFDASV
In the case of B1, the “assembly of the 3A mutant” value [1, 4] is reported as “no effect”, the “assembly of the 3E mutant” value [1, 4] is reported as “prevented assembly” and the “WT HBc capsid assembly” value ([1]; RNase treatment before CIAP treatment, RNase A 100 μg/ml) is reported as “prevented capsid assembly”. The 7A assembly [1, 5] was “abolished”, the 7E assembly [1, 5] was “no effect” and the “assembled capsids (WT and mutants)” value ([1]; RNase treatment following the completion of capsid assembly) was “little effect”.

B2: CIAP: calf intestinal alkaline phosphatase, exogenous phosphatase (New England Biolabs) (protein, UniProt P19111 20-506, looked up)
Intestinal-type alkaline …: LVPVEEEDPAFWNRQAAQALDVAKKLQPIQTAAKNVILFLGDGMGVPTVTATRILKGQMNGKLGPETPLAMDQFPYVALSKTYNVDRQVPDSAGTATAYLCGVKGNYRTIGVSAAARYNQCKTTRGNEVTSVMNRAKKAGKSVGVVTTTRVQHASPAGAYAHTVNRNWYSDADLPADAQMNGCQDIAAQLVNNMDIDVILGGGRKYMFPVGTPDPEYPDDASVNGVRKRKQNLVQAWQAKHQGAQYVWNRTALLQAADDSSVTHLMGLFEPADMKYNVQQDHTKDPTLQEMTEVALRVVSRNPRGFYLFVEGGRIDHGHHDDKAYMALTEAGMFDNAIAKANELTSELDTLILVTADHSHVFSFGGYTLRGTSIFGLAPSKALDSKSYTSILYGNGPGYALGGGSRPDVNDSTSEDPSYQQQAAVPQASETHGGEDVAVFARGPQAHLVHGVEEETFVAHIMAFAGCVEPYTDCNLPAPTTATSIPD
For B2, the “mobility of the C149 truncation mutant” value (HBc CTD; [6]) was “did not affect the mobility”, the “assembly of the WT HBc” value ([1]; CIAP 1 unit per microliter, 16 hours at 37° C. following translation) was “induced the assembly” and the “assembly of the 3A mutant” value [1, 6] was “did not have a significant effect”. For the same molecule, the “assembly of the 3E mutant” value [1, 6] was “did not have a significant effect”.
